Test results published in paper PMC6274355, “Synthesis and Anti-HIV-1 Activity Evaluation for Novel 3a,6a-Dihydro-1H-pyrrolo[3,4-c]pyrazole-4,6-dione Derivatives” (Molecules, 2016).
Like-named read-outs stand apart in the source and are kept apart here.

Key:
Cytotoxicity assay (MTT) = assay type: cell-based; settings: human; C8166 cells, MTT, 72 h; means of two separate experiments; read-out: CC50 (50% cytotoxic concentration)
Procedure: The cytotoxicty assay was performed by 3-(4,5-dimethylthiazol-2-yl)-2,5-diphenyl tetrazoliumbromide (MTT) method. Briefly, 100 μL 4 × 10^4 C8166 cells were seeded each well with 100 μL of different concentrations of compounds in a 96-well plate. The plate was incubated 72 h at 37 °C, 5% CO2 incubator. MTT (20 μL, 5 mg/mL) was added to each well and the plate was incubated at 37 °C for 4 h. Supernatant (100 μL) was discarded and 20% SDS-50% DMF (100 μL) was added. The plates were read at 570/630 nm by a Bio-Tek Elx 800 reader (Bio-Tek Instruments, Inc., Winooski, VT, USA). The 50% cytotoxic concentration (CC50) was calculated.

HIV-1IIIB = experiment: Syncytia inhibition assay (HIV-1IIIB infected C8166 cells); assay type: cell-based; settings: for TI (in vitro therapeutic index, CC50 value/EC50 value): CC50 in C8166 cells / EC50 syncytia inhibition; for EC50: HIV-1IIIB infected C8166 cells, 72 h, means of two separate experiments, read-out: EC50 (50% effective concentration, reduces syncytia formation by 50%)
Procedure: Target compounds 6–16 were evaluated for their inhibitory activity against HIV-1 replication in acutely infected C8166 cells in vitro according to the previously described method, and AZT was used as a positive control. The assay results of the target compounds are presented in Table 1 and Table 2, expressed as CC50, EC50 and therapeutic index (TI).
The syncytia inhibition assay was applied by counting syncytia which were formed by HIV-1IIIB infected C8166 cells. Briefly, HIV-1IIIB supernatant and C8166 cells were seeded in a 96-well plate with different concentration of compounds. The plate was incubated in a 37 °C, 5% CO2 incubator for 72 h. Syncytia were counting under an inverted microscope and 50% effective concentration (EC50) was calculated. Therapeutic index (TI) was calculated by the ratio of CC50/EC50.

[1] = Human immunodeficiency virus 1, C8166, 72 h

EC50 (HIV-1IIIB; [1])	EC50 (HIV-1IIIB)	SMILES	CC50 at 72 h (Cytotoxicity assay (MTT))	TI (in vitro therapeutic index, CC50 value/EC50 value) (HIV-1IIIB)
12.1 µM	–	COc1cccc(C2=NN(c3cccc(F)c3)C3C(=O)N(CCc4ccc(F)cc4)C(=O)C23)c1O (stereo not shown) [15a, 1-(3-Fluorophenyl)-5-[2-(4-fluorophenyl)ethyl]-3-(2-hydroxy-3-methoxyphenyl)-3a,6a-dihydro-1H-pyrrolo[3,4-c]pyrazole-4,6-dione]	129 µM	10.67
113 µM	–	COc1cccc(C2=NN(c3ccccc3F)C3C(=O)N(CCc4ccc(F)cc4)C(=O)C23)c1O (stereo not shown) [15b, 1-(2-Fluorophenyl)-5-[2-(4-fluorophenyl)ethyl]-3-(2-hydroxy-3-methoxyphenyl)-3a,6a-dihydro-1H-pyrrolo[3,4-c]pyrazole-4,6-dione]	> 419 µM	>3.71
25.5 µM	–	COc1cccc(C2=NN(c3ccc(Cl)cc3)C3C(=O)N(CCc4ccc(F)cc4)C(=O)C23)c1O (stereo not shown) [15c, 1-(4-Chlorophenyl)-5-[2-(4-fluorophenyl)ethyl]-3-(2-hydroxy-3-methoxyphenyl)-3a,6a-dihydro-1H-pyrrolo[3,4-c]pyrazole-4,6-dione]	166 µM	6.52
65.9 µM	–	COc1cccc(C2=NN(c3ccc(F)cc3F)C3C(=O)N(CCc4ccc(F)cc4)C(=O)C23)c1O (stereo not shown) [15d, 1-(2,4-Difluorophenyl)-5-[2-(4-fluorophenyl)ethyl]-3-(2-hydroxy-3-methoxyphenyl)-3a,6a-dihydro-1H-pyrrolo[3,4-c]pyrazole-4,6-dione]	> 404 µM	>6.12
32.1 µM	–	COc1cccc(C2=NN(c3ccc(C(F)(F)F)cc3)C3C(=O)N(CCc4ccc(F)cc4)C(=O)C23)c1O (stereo not shown) [15e, 5-[2-(4-Fluorophenyl)-ethyl]-3-(2-hydroxy-3-methoxyphenyl)-1-(4-trifluoromethylphenyl)-3a,6a-dihydro-1H-pyrrolo[3,4-c]pyrazole-4,6-dione]	> 379 µM	>11.81
65.3 µM	–	COc1cccc(C2=NN(c3ccc(S(C)(=O)=O)cc3)C3C(=O)N(CCc4ccc(F)cc4)C(=O)C23)c1O (stereo not shown) [15f, 5-[2-(4-Fluorophenyl)ethyl]-3-(2-hydroxy-3-methoxyphenyl)-1-(4-methanesulfonylphenyl)-3a,6a-dihydro-1H-pyrrolo[3,4-c]pyrazole-4,6-dione]	> 372 µM	>5.70
30.4 µM	–	COc1cccc(C2=NN(c3ccc(S(N)(=O)=O)cc3)C3C(=O)N(CCc4ccc(F)cc4)C(=O)C23)c1O (stereo not shown) [15g, 4-[5-[2-(4-Fluorophenyl)ethyl]-3-(2-hydroxy-3-methoxyphenyl)-4,6-dioxo-4,5,6,6a-tetrahydro-3aH-pyrrolo[3,4-c]pyrazol-1-yl]-benzenesulfonamide]	46 µM	1.51

The remaining lines, values behind:

SMILES	EC50 (HIV-1IIIB; [1])	EC50 (HIV-1IIIB)	CC50 at 72 h (Cytotoxicity assay (MTT))	TI (in vitro therapeutic index, CC50 value/EC50 value) (HIV-1IIIB)
COc1c(O)cccc1C1=NN(c2ccc(F)cc2)C2C(=O)N(CCc3ccc(F)cc3)C(=O)C12 (stereo not shown) [7a, 1-(4-Fluorophenyl)-5-[2-(4-fluorophenyl)ethyl]-3-(3-hydroxy-2-methoxyphenyl)-3a,6a-dihydro-1H-pyrrolo[3,4-c]pyrazole-4,6-dione]	5.37 µM	–	39.1 µM	7.29
O=C1C2C(c3ccccc3)=NN(c3ccc(F)cc3)C2C(=O)N1CCc1ccc(F)cc1 (stereo not shown) [7b, 1-(4-Fluorophenyl)-5-[2-(4-fluorophenyl)ethyl]-3-phenyl-3a,6a-dihydro-1H-pyrrolo[3,4-c]pyrazole-4,6-dione]	9.21 µM	–	148 µM	16.03
O=C1C2C(c3ccc(O)cc3O)=NN(c3ccc(F)cc3)C2C(=O)N1CCc1ccc(F)cc1 (stereo not shown) [9a, 3-(2,4-Dihydroxyphenyl)-1-(4-fluorophenyl)-5-[2-(4-fluorophenyl)ethyl]-3a,6a-dihydro-1H-pyrrolo[3,4-c]pyrazole-4,6-dione]	35.3 µM	–	173 µM	4.91
O=C1C2C(c3cccc(F)c3O)=NN(c3ccc(F)cc3)C2C(=O)N1CCc1ccc(F)cc1 (stereo not shown) [9b, 1-(4-Fluorophenyl)-5-[2-(4-fluorophenyl)ethyl]-3-(3-fluoro-2-hydroxyphenyl)-3a,6a-dihydro-1H-pyrrolo[3,4-c]pyrazole-4,6-dione]	5.74 µM	–	141 µM	24.58
O=C1C2C(c3cc(F)ccc3O)=NN(c3ccc(F)cc3)C2C(=O)N1CCc1ccc(F)cc1 (stereo not shown) [9c, 1-(4-Fluorophenyl)-5-[2-(4-fluorophenyl)ethyl]-3-(5-fluoro-2-hydroxyphenyl)-3a,6a-dihydro-1H-pyrrolo[3,4-c]pyrazole-4,6-dione]	4.21 µM	–	159 µM	37.70
O=C1C2C(c3cccc(Cl)c3O)=NN(c3ccc(F)cc3)C2C(=O)N1CCc1ccc(F)cc1 (stereo not shown) [9d, 3-(3-Chloro-2-hydroxyphenyl)-1-(4-fluorophenyl)-5-[2-(4-fluorophenyl)ethyl]-3a,6a-dihydro-1H-pyrrolo[3,4-c]pyrazole-4,6-dione]	20.4 µM	–	332 µM	16.23
O=C1C2C(c3cccc([N+](=O)[O-])c3O)=NN(c3ccc(F)cc3)C2C(=O)N1CCc1ccc(F)cc1 (stereo not shown) [9e, 1-(4-Fluorophenyl)-5-[2-(4-fluorophenyl)ethyl]-3-(2-hydroxy-3-nitrophenyl)-3a,6a-dihydro-1H-pyrrolo[3,4-c]pyrazole-4,6-dione]	7.55 µM	–	49.5 µM	6.56
Cc1cccc(C2=NN(c3ccc(F)cc3)C3C(=O)N(CCc4ccc(F)cc4)C(=O)C23)c1O (stereo not shown) [9f, 1-(4-Fluoro-phenyl)-5-[2-(4-fluoro-phenyl)-ethyl]-3-(2-hydroxy-3-methyl-phenyl)-3a,6a-dihydro-1H-pyrrolo[3,4-c]pyrazole-4,6-dione]	4.9 µM	–	151 µM	30.73
COc1cccc(C2=NN(c3ccc(F)cc3)C3C(=O)N(CCc4ccc(F)cc4)C(=O)C23)c1O (stereo not shown) [9g, 1-(4-Fluorophenyl)-5-[2-(4-fluorophenyl)ethyl]-3-(2-hydroxy-3-methoxyphenyl)-3a,6a-dihydro-1H-pyrrolo[3,4-c]pyrazole-4,6-dione]	< 5 µM	3.98 µM	> 419 µM	>105.26
COc1ccc(C2=NN(c3ccc(F)cc3)C3C(=O)N(CCc4ccc(F)cc4)C(=O)C23)c(O)c1 (stereo not shown) [10a, 1-(4-Fluorophenyl)-5-[2-(4-fluorophenyl)ethyl]-3-(2-hydroxy-4-methoxyphenyl)-3a,6a-dihydro-1H-pyrrolo[3,4-c]pyrazole-4,6-dione]	8.52 µM	–	21.4 µM	2.51
CCOc1cccc(C2=NN(c3ccc(F)cc3)C3C(=O)N(CCc4ccc(F)cc4)C(=O)C23)c1O (stereo not shown) [10c, 1-(4-Fluorophenyl)-5-[2-(4-fluorophenyl)ethyl]-3-(3-ethoxy-2-hydroxyphenyl)-3a,6a-dihydro-1H-pyrrolo[3,4-c]pyrazole-4,6-dione]	116 µM	–	> 407 µM	>3.51
COc1cccc(C2=NN(c3ccc(F)cc3)C3C(=O)N(CCc4ccc(F)cc4)C(=O)C23)c1OC (stereo not shown) [12a, 3-(2,3-Dimethoxyphenyl)-1-(4-fluorophenyl)-5-[2-(4-fluorophenyl)ethyl]-3a,6a-dihydro-1H-pyrrolo[3,4-c]pyrazole-4,6-dione]	11.1 µM	–	> 407 µM	>36.56
O=C1C2C(c3cccc4c3OCO4)=NN(c3ccc(F)cc3)C2C(=O)N1CCc1ccc(F)cc1 (stereo not shown) [12b, 3-Benzo[1,3]dioxol-4-yl-1-(4-fluorophenyl)-5-[2-(4-fluorophenyl)ethyl]-3a,6a-dihydro-1H-pyrrolo[3,4-c]pyrazole-4,6-dione]	7.11 µM	–	222 µM	31.29
O=C1C2C(c3nccs3)=NN(c3ccc(F)cc3)C2C(=O)N1CCc1ccc(F)cc1 (stereo not shown) [14a, 1-(4-Fluorophenyl)-5-[2-(4-fluorophenyl)ethyl]-3-thiazol-2-yl-3a,6a-dihydro-1H-pyrrolo[3,4-c]pyrazole-4,6-dione]	35.6 µM	–	158 µM	4.46
O=C1C2C(c3ccccn3)=NN(c3ccc(F)cc3)C2C(=O)N1CCc1ccc(F)cc1 (stereo not shown) [14b, 1-(4-Fluorophenyl)-5-[2-(4-fluorophenyl)ethyl]-3-pyridin-2-yl-3a,6a-dihydro-1H-pyrrolo[3,4-c]pyrazole-4,6-dione]	26.2 µM	–	150 µM	5.73
